In PubChem BioAssay AID2060492 (Molecular Pharmacology Branch, DTP, NCI, 2025):

Test system: 695427-040-R-J1-PDC complex spheroids, viability percent T/C
Assay: Anticancer human tumor 695427-040-R-J1-PDC patient-derived colon adenocarcinoma cell line growth inhibition [GQUAD]
Settings: for IC50: curve of first compound; for viability, T/C: stronger effect = lower value
Source text: DNA G-quadruplex Stabilizer Agents in Combinations in Complex Spheroids
A high-throughput screen of multi-cell type tumor spheroids was designed to identify active combinations of DNA G-quadruplex stabilizer agents and targeted small molecules. Complex spheroids include a stromal component modeled by human endothelial cells (HUVEC) and fibroblasts modeled by human mesenchymal stem cells (MSCs). The concentration ranges selected for each drug and investigational agent were based upon clinically achievable concentrations if the clinical Cmax of the agent was known.
Compounds. The drugs and investigational agents: pidnarulex (CX-5461; NSC782164), APTO-253 (NSC789042), BRACO-19 (NSC847499), peposertib (NSC802822), ceralasertib (NSC780249), elimusertib (NSC800525), camonsertib (NSC841442), AZD-1390 (NSC803789), olaparib (NSC753686), talazoparib (NSC767125), ART-558 (NSC835418), sotorasib (NSC818433), MRTX-1133 (NSC836407), SN-38 (NSC673596), topotecan (NSC609699), etoposide (NSC141540), doxorubicin (NSC123127), gemcitabine (NSC613327), 5-fluorouracil (NSC19893), paclitaxel (NSC125973), vemurafenib (NSC761431), panobinostat (NSC761190), R-306465 (JNJ-16241199; NSC773264), adavosertib (NSC754352), TP-3654 (NSC805149), carboplatin (NSC241240), KSQ-4279 (NSC840948), and staurosporine (NSC755774) were obtained from the National Cancer Institute (NCI) Developmental Therapeutics Program Chemical Repository (34). The FDA-approved anticancer drug set is available from the NCI Developmental Therapeutics Program. […] The stock solutions were prepared in dimethyl sulfoxide (DMSO, Sigma-Aldrich, St. Louis, MO, cat. D2650) at 800-fold the tested concentration and stored at -70 degrees C prior to their use. All drugs and investigational agents were tested over a range starting from a high concentration at or near the clinical Cmax and decreasing in half-log increments. If the clinical Cmax for an agent had not been determined, the highest concentration tested was 10 microM.
2.3 Cell Culture. All cells were maintained in an incubator at 37 degrees C and 5% CO2 with 95% humidity. The PDC lines were cultured according to standard operating procedures established by the NCI PDMR. All PDCs were thawed and cultured in Matrigel-coated flasks prepared with a working solution of 1X Ham's F-12 nutrient mix, without supplementation (Invitrogen, cat. 11765054), 100 U/mL penicillin-streptomycin (Invitrogen, cat. 15140122), and 2.5% Matrigel (Corning Inc., cat. 354248) for the first three passages. The 857933-349-R-J2-PDC line was cultured in 6C/Colon 1B media, which includes advanced DMEM/F-12 (Thermo Fisher Scientific, cat. 12634028), 10 mM HEPES (Thermo Fisher Scientific, cat. 15630080), 1X GlutaMAX supplement (Thermo Fisher Scientific, cat. 35050061), 0.1 mg/mL primocin (InvivoGen, cat. ant-pm-2), 10% defined fetal bovine serum, heat inactivated (HyClone Laboratories Inc., cat. SH30070.03HI), 50% L-WRN conditioned media (ATCC, cat. CRL-3276), 1.25 mM N-Acetyl-L-cysteine (Sigma-Aldrich, cat. A9165), 10 mM nicotinamide (Sigma-Aldrich, cat. N0636), 1X B-27 supplement (Thermo Fisher Scientific, cat. 17504044), 1X N-2 supplement (Thermo Fisher Scientific, cat. 17502048), 10 microM Y-27632 dihydrochloride (Tocris Bioscience, cat. 1254), and 50 ng/mL human EGF recombinant protein (Thermo Fisher Scientific, cat. PHG0311). The 485176-168-R4-J1-PDC line was cultured in Panc media, which includes all 6C/Colon 1B media components plus 100 ng/mL human FGF-10 (Thermo Fisher Scientific, cat. 100-26), 500 nM SB-431542 (Selleckchem, cat. S1067), and gastrin (Tocris, cat. 3006).
[…]
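Also: spheroids exposed to compounds for seven days before readout.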

C=CCn1c(=O)c2cnc(Nc3ccc(N4CCN(C)CC4)cc3)nc2n1-c1cccc(C(C)(C)O)n1 + Cc1[nH]c2ccc(F)cc2c1-c1nc2c3cccnc3c3ncccc3c2[nH]1
IC50 (second compound 0.0316 µM): 9.44 µM
IC50 (second compound 0.1 µM): 6.67 µM
IC50 (second compound 0.316 µM): 6.48 µM
IC50 (second compound 1 µM): 5.42 µM
IC50 (second compound 3.16 µM): 4.56 µM
IC50 (second compound 10 µM): 4.4 µM
viability, T/C (second compound 0.0316 µM, first compound 0.0316 µM): 102%
viability, T/C (second compound 0.0316 µM, first compound 0.1 µM): 104%
viability, T/C (second compound 0.0316 µM, first compound 0.316 µM): 94.3%
viability, T/C (second compound 0.0316 µM, first compound 1 µM): 108%
viability, T/C (second compound 0.0316 µM, first compound 3.16 µM): 105%
viability, T/C (second compound 0.0316 µM, first compound 10 µM): 47.1%
viability, T/C (second compound 0.1 µM, first compound 0.0316 µM): 114%
viability, T/C (second compound 0.1 µM, first compound 0.1 µM): 99.8%
viability, T/C (second compound 0.1 µM, first compound 0.316 µM): 103%
viability, T/C (second compound 0.1 µM, first compound 1 µM): 113%
viability, T/C (second compound 0.1 µM, first compound 3.16 µM): 99.3%
viability, T/C (second compound 0.1 µM, first compound 10 µM): 23%
viability, T/C (second compound 0.316 µM, first compound 0.0316 µM): 105%
viability, T/C (second compound 0.316 µM, first compound 0.1 µM): 94.1%
viability, T/C (second compound 0.316 µM, first compound 0.316 µM): 95.6%
viability, T/C (second compound 0.316 µM, first compound 1 µM): 97.2%
viability, T/C (second compound 0.316 µM, first compound 3.16 µM): 95.6%
viability, T/C (second compound 0.316 µM, first compound 10 µM): 22.4%
viability, T/C (second compound 1 µM, first compound 0.0316 µM): 81.6%
viability, T/C (second compound 1 µM, first compound 0.1 µM): 88.2%
viability, T/C (second compound 1 µM, first compound 0.316 µM): 93.1%
viability, T/C (second compound 1 µM, first compound 1 µM): 89.3%
viability, T/C (second compound 1 µM, first compound 3.16 µM): 79.8%
viability, T/C (second compound 1 µM, first compound 10 µM): 16%
viability, T/C (second compound 3.16 µM, first compound 0.0316 µM): 72%
viability, T/C (second compound 3.16 µM, first compound 0.1 µM): 72%
viability, T/C (second compound 3.16 µM, first compound 0.316 µM): 70.3%
viability, T/C (second compound 3.16 µM, first compound 1 µM): 64.8%
viability, T/C (second compound 3.16 µM, first compound 3.16 µM): 70.7%
viability, T/C (second compound 3.16 µM, first compound 10 µM): 7.06%
viability, T/C (second compound 10 µM, first compound 0.0316 µM): 75.4%
viability, T/C (second compound 10 µM, first compound 0.1 µM): 76.8%
viability, T/C (second compound 10 µM, first compound 0.316 µM): 71.5%
viability, T/C (second compound 10 µM, first compound 1 µM): 71.5%
viability, T/C (second compound 10 µM, first compound 3.16 µM): 67.8%
viability, T/C (second compound 10 µM, first compound 10 µM): 6.01%
